In ChEMBL document CHEMBL3272022, “Analogs of luteinizing hormone-releasing hormone with increased biological activity produced by D-amino acid substitutions in position 6” (1976):

Assays:
Rattus norvegicus [1] = experiment: Induction of luteinizing hormone release in immature male rat at 100 ng, sc measured after 15 mins to 6 hrs post dose by RIA relative to LH-RH
Rattus norvegicus [2] = experiment: Induction of FSH release in immature male rat at 100 ng, sc measured after 15 mins to 6 hrs post dose by RIA relative to LH-RH
Rattus norvegicus [3] = experiment: Induction of luteinizing hormone release in ovariectomized estrogen/progesterone-treated rat at 50 ng, sc measured at 60 mins post dose by RIA (reference value: 6.0+/- 0.4 ng/ml); assay type: functional
Rattus norvegicus [4] = experiment: Induction of luteinizing hormone release in ovariectomized estrogen/progesterone-treated rat at 10 ng, sc measured at 30 mins post dose by RIA (reference value: 5.3 +/- 1.5 ng/ml); assay type: functional
Rattus norvegicus [5] = experiment: Induction of luteinizing hormone release in ovariectomized estrogen/progesterone-treated rat at 100 ng, sc measured after 30 mins post dose by RIA relative to LH-RH; assay type: functional
Rattus norvegicus [6] = experiment: Induction of luteinizing hormone release in ovariectomized estrogen/progesterone-treated rat at 10 ng, sc measured at 60 mins post dose by RIA (reference value: 6.0+/- 0.4 ng/ml); assay type: functional
Rattus norvegicus [7] = experiment: Induction of luteinizing hormone release in ovariectomized estrogen/progesterone-treated rat at 50 ng, sc measured at 30 mins post dose by RIA (reference value: 5.3 +/- 1.5 ng/ml); assay type: functional
Rattus norvegicus [8] = experiment: Induction of luteinizing hormone release in ovariectomized estrogen/progesterone-treated rat at 5 ng, sc measured at 60 mins post dose by RIA (reference value: 6.0+/- 0.4 ng/ml); assay type: functional
Rattus norvegicus [9] = experiment: Induction of luteinizing hormone release in ovariectomized estrogen/progesterone-treated rat at 5 ng, sc measured at 30 mins post dose by RIA (reference value: 5.3 +/- 1.5 ng/ml); assay type: functional
Rattus norvegicus [10] = experiment: Induction of luteinizing hormone release in ovariectomized estrogen/progesterone-treated rat at 1 ng, sc measured at 30 mins post dose by RIA (reference value: 5.3 +/- 1.5 ng/ml); assay type: functional
Rattus norvegicus [11] = experiment: Induction of luteinizing hormone release in ovariectomized estrogen/progesterone-treated rat at 1 ng, sc measured at 60 mins post dose by RIA (reference value: 6.0+/- 0.4 ng/ml); assay type: functional

Row | SMILES | Ratio (Rattus norvegicus [1]) | Ratio (Rattus norvegicus [2]) | also measured
1 | CC(C)C[C@H](NC(=O)[C@@H](Cc1ccccc1)NC(=O)[C@H](Cc1ccc(O)cc1)NC(=O)[C@H](CO)NC(=O)[C@H](Cc1c[nH]c2ccccc12)NC(=O)[C@H](Cc1cnc[nH]1)NC(=O)[C@@H]1CCC(=O)N1)C(=O)N[C@@H](CCCNC(=N)N)C(=O)N1CCC[C@H]1C(=O)NCC(N)=O | 10 | 20 | 
2 | CC(C)C[C@H](NC(=O)[C@@H](C)NC(=O)[C@H](Cc1ccc(O)cc1)NC(=O)[C@H](CO)NC(=O)[C@H](Cc1c[nH]c2ccccc12)NC(=O)[C@H](Cc1cnc[nH]1)NC(=O)[C@@H]1CCC(=O)N1)C(=O)N[C@@H](CCCNC(=N)N)C(=O)N1CCC[C@H]1C(=O)NCC(N)=O | 7 | 13 | 
3 | CC(C)C[C@H](NC(=O)[C@@H](CCC(=O)O)NC(=O)[C@H](Cc1ccc(O)cc1)NC(=O)[C@H](CO)NC(=O)[C@H](Cc1c[nH]c2ccccc12)NC(=O)[C@H](Cc1cnc[nH]1)NC(=O)[C@@H]1CCC(=O)N1)C(=O)N[C@@H](CCCNC(=N)N)C(=O)N1CCC[C@H]1C(=O)NCC(N)=O | 1.8 | 1.5 | 
4 | CC(C)C[C@H](NC(=O)[C@@H](C)N(C)C(=O)[C@H](Cc1ccc(O)cc1)NC(=O)[C@H](CO)NC(=O)[C@H](Cc1c[nH]c2ccccc12)NC(=O)[C@H](Cc1cnc[nH]1)NC(=O)[C@@H]1CCC(=O)N1)C(=O)N[C@@H](CCCNC(=N)N)C(=O)N1CCC[C@H]1C(=O)NCC(N)=O |  |  | Activity (Rattus norvegicus [3]): 18.6 ng/mL; Activity (Rattus norvegicus [4]): 22.9 ng/mL; Ratio (Rattus norvegicus [5]): 0.1; Activity (Rattus norvegicus [6]): 8.9 ng/mL; Activity (Rattus norvegicus [7]): 47.8 ng/mL
5 | CCNC(=O)[C@@H]1CCCN1C(=O)[C@H](CCCNC(=N)N)NC(=O)[C@H](CC(C)C)NC(=O)[C@@H](Cc1ccccc1)NC(=O)[C@H](Cc1ccc(O)cc1)NC(=O)[C@H](CO)NC(=O)[C@H](Cc1c[nH]c2ccccc12)NC(=O)[C@H](Cc1cnc[nH]1)NC(=O)[C@@H]1CCC(=O)N1 | 8 | 7 | 
6 | CCNC(=O)[C@@H]1CCCN1C(=O)[C@H](CCCNC(=N)N)NC(=O)[C@H](CC(C)C)NC(=O)[C@@H](Cc1c[nH]c2ccccc12)NC(=O)[C@H](Cc1ccc(O)cc1)NC(=O)[C@H](CO)NC(=O)[C@H](Cc1c[nH]c2ccccc12)NC(=O)[C@H](Cc1c[nH]cn1)NC(=O)[C@@H]1CCC(=O)N1 [DESLORELIN] | 7 | 6 | 
7 | CC(C)C[C@H](NC(=O)CNC(=O)[C@H](Cc1ccc(O)cc1)NC(=O)[C@H](CO)NC(=O)[C@H](Cc1c[nH]c2ccccc12)NC(=O)[C@H](Cc1cnc[nH]1)NC(=O)[C@@H]1CCC(=O)N1)C(=O)N[C@@H](CCCNC(=N)N)C(=O)N1CCC[C@H]1C(=O)NCC(N)=O [GONADORELIN] |  |  | Activity (Rattus norvegicus [8]): 15.4 ng/mL; Activity (Rattus norvegicus [9]): 47 ng/mL; Activity (Rattus norvegicus [10]): 24.5 ng/mL; Activity (Rattus norvegicus [11]): 9.6 ng/mL
8 | CCNC(=O)[C@@H]1CCCN1C(=O)[C@H](CCCNC(=N)N)NC(=O)[C@H](CC(C)C)NC(=O)[C@@H](CC(C)C)NC(=O)[C@H](Cc1ccc(O)cc1)NC(=O)[C@H](CO)NC(=O)[C@H](Cc1c[nH]c2ccccc12)NC(=O)[C@H](Cc1c[nH]cn1)NC(=O)[C@@H]1CCC(=O)N1 [LEUPROLIDE] | 15 | 11 | 
9 | CC(C)C[C@H](NC(=O)[C@@H](Cc1c[nH]c2ccccc12)NC(=O)[C@H](Cc1ccc(O)cc1)NC(=O)[C@H](CO)NC(=O)[C@H](Cc1c[nH]c2ccccc12)NC(=O)[C@H](Cc1c[nH]cn1)NC(=O)[C@@H]1CCC(=O)N1)C(=O)N[C@@H](CCCNC(=N)N)C(=O)N1CCC[C@H]1C(=O)NCC(N)=O [TRIPTORELIN] | 13 | 21 | 
